Two molecules from BindingDB's records for doi:10.1021/acsmedchemlett.9b00575 (Duke University, 2020) can be followed below.

In one experiment the target is D(2) dopamine receptor (Homo sapiens, UniProt P14416). As to the kind of experiment: Agonist activity at C-terminal RLuc8-fused D2 long receptor (unknown origin) transfected in human HEK293T cells co-expressing N-terminal Venus-tagged beta-arrestin2 assessed as increase in beta-arrestin2 recruitment measured after 5 mins in presence of coelenterazine H by BRET assay. (In general: Activated receptors often draw arrestin, which recruitment assays turn into a signal.)

For a further experiment, the target named is D(1A) dopamine receptor (Homo sapiens, UniProt P21728). As to the kind of experiment: Agonist activity at D1R (unknown origin) transfected in human HEK293T cells assessed as increase in cAMP accumulation incubated for 2 hrs by cAMP Glo-sensor assay. (In general: Changes in cAMP serve as a functional read-out for many G protein-coupled receptors.)
Chain of D(1A) dopamine receptor (P21728 whole entry): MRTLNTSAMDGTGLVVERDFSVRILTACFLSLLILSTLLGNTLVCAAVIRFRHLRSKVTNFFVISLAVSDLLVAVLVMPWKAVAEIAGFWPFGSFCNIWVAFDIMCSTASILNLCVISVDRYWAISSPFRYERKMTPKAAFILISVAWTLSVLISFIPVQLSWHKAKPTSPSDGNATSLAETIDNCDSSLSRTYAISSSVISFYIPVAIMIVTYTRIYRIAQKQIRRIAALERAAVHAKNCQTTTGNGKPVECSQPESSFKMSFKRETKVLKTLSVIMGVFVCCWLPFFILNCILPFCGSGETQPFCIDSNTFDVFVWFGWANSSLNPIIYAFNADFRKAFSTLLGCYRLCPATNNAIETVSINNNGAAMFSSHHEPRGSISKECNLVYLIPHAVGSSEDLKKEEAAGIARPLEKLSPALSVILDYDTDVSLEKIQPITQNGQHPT

Chain of D(2) dopamine receptor (P14416 whole entry, the tested form may be a part): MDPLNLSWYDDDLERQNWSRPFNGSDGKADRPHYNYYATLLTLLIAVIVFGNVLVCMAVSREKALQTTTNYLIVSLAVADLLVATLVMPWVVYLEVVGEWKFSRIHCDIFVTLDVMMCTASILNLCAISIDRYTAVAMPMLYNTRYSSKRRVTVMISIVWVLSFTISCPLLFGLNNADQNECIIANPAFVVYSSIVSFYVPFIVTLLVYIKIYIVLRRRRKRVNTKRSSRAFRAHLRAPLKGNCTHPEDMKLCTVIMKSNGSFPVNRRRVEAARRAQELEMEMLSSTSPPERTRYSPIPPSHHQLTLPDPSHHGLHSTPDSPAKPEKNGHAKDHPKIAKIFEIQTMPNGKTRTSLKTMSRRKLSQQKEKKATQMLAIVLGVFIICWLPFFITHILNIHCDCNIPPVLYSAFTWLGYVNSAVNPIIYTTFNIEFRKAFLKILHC

Broadly, the EC50 is the midpoint of the concentration-response curve. As to `CC(=O)Oc1c(Br)cc2c(c1OC(C)=O)-c1cccc3c1[C@@H](C2)N(C)CC3`, the EC50 at D(2) dopamine receptor amounted to 1260 nM.
Take `CN1CCc2cccc3c2[C@H]1Cc1ccc2c(c1-3)OCO2`: the half-maximal effective concentration (EC50) on D(1A) dopamine receptor stood at 100 nM.
